# Assay results from patent US20040219097A1, “Composition useful for the diagnosis, imaging and treatment of tumors” (priority 2003, published 2004).
# Key:
# [1] = tested on: JJ5 Breast Cancer cells; assay: Growth inhibition assay against JJ5 breast cancer cells; format: cell-based, human; details: 4 days culture
# Method: Growth medium was added and the cells were cultured at 37° C./5% CO^2 for 4 days. The cells were then recovered by trypsinization and counted in a hemocytometer. Control dishes contained cells cultured in growth medium containing ^111In-DTPA or growth medium alone.
# [2] = tested on: JJ5 Breast Cancer cells; assay: Cytotoxicity (colony-forming) assay against JJ5 breast cancer cells; format: cell-based, human; details: 14 days
# Method: The number of cells seeded was varied from 3×10^4 to 3×10^6cells to obtain approximately 400 viable colonies/dish taking into account the plating efficiency and the expected level of cytotoxicity. Control dishes contained JJ5 breast cancer cells which were incubated with normal saline. Growth medium was added and the cells were cultured at 37° C./5% CO^2 for 14 days. The growth medium was removed and the colonies were stained with methylene blue (1% in a 1:1 mixture of ethanol and water) then washed twice. The number of colonies per dish was counted using a manual colony counter (Manostat Corp). The plating efficiency was calculated by dividing the number of colonies observed by the number of cells seeded in each dish.
# [3] = tested on: JJ5 Breast Cancer cells; assay: Binding of EGF-^111In-labeled transferrin compound to breast cancer cells (radioligand binding, kinetics, retention); set-up: species or system human
# Method: For the normal breast cell line HBL-100, 8000 EGFR/cell has been reported. The expression of EGFR in breast cancer cell lines has a reported range of 800 EGFR/cell for MCF-7 cells to 10^6 EGFR/cell for MDA-MB-468 cells. […] Utilizing the Auger electron emitter ^111In was used in the initial experiments to illustrate the utility of the invention using EGF-^111In-labeled transferrin compounds. The EGF-^111In-labeled transferrin (0.25-80 ng) was incubated with 1.5×10^6 cells/dish JJ5 Breast Cancer (prepared from BCBM JJ5) cells in 1 mL of 0.1% human serum albumin in 35 mm multiwell culture dishes at 37° C. for 30 minutes. The cells were transferred to a centrifuge tube and centrifuged. The cell pellet was separated from the supernatant and counted in a g-scintillation counter to determine bound (B) and free (F) radioactivity. Non-specific binding was determined by conducting the assay in 100 nM hEGF. […] Internalized fraction was measured by determining the proportion of radioactivity which could not be displaced from the cell surface by 100 nM hEGF. Cell-associated binding (surface-binding and intracellular accumulation) was expressed as a percentage of medium radioactivity bound per mg of cell study protein.
Compound,growth inhibition of the JJ5 cells compared to the medium control ([1]; 3.5 pCi/cell) [%],cell killing ([2]; <6 pCi/cell),growth inhibition of the JJ5 cells compared to the medium control ([1]; 3.4 pCi/cell) [%],reduction in cell survival for JJ5 cells ([2]; 8 pCi/cell) [%],"internalization by cancer cells, in words [3]","binding by the breast cancer cells (kinetics, in words) ([3]; JJ5 cells, 37° C.)","retained by the breast cancer cells ([3]; JJ5 cells, 37° C.)","affinity constant for binding to JJ5 cells ([3]; JJ5 cells, 37° C., 30 minutes) [L/mol]"
"[In+3].[O-]c1cccc2cccnc12.[O-]c1cccc2cccnc12.[O-]c1cccc2cccnc12 [^111In-oxine, reference compound]",91,greater than 99%,,,,,,
EGF-^111In-labeled transferrin compound: human EGF linked to ^111In-labeled human transferrin,,,83,99,rapidly internalized,rapidly bound,at least 24 hours,8e+08
